Structures are written as SMILES.

What all share (assay type): cell-based
The target in one assay is T1, hPPARδ (Homo sapiens, UniProt Q03181).
T1 construct: expressed in transfected cells; host or cells: COS cells (Cercopithecus aethiops kidney)
T1 sequence (Q03181 1-441): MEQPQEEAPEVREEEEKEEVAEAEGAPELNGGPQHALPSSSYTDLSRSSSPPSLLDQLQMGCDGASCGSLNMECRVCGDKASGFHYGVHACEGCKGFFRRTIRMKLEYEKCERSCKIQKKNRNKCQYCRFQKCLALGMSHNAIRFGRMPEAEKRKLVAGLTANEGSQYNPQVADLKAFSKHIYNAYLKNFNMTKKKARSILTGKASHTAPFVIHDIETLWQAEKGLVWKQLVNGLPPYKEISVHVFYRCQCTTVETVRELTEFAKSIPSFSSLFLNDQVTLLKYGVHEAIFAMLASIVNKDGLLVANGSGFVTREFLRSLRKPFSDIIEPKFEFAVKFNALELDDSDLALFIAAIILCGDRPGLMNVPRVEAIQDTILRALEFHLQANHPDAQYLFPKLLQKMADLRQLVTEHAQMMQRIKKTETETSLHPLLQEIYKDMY
Put plainly: PPAR transfection (luciferase reporter) assay in COS cells, hPPARδ. Conditions: agonist activity, transiently transfected COS cells, 16 hours incubation; read-out: hPPAR; EC50 δ. In general terms: Reporter assays use an easily measured gene product as a stand-in for the process of interest.

A further assay deals with T2, hPPARγ (Homo sapiens, UniProt P37231).
T2 construct: expressed in transfected cells; host or cells: COS cells (Cercopithecus aethiops kidney)
T2 sequence (P37231 1-505): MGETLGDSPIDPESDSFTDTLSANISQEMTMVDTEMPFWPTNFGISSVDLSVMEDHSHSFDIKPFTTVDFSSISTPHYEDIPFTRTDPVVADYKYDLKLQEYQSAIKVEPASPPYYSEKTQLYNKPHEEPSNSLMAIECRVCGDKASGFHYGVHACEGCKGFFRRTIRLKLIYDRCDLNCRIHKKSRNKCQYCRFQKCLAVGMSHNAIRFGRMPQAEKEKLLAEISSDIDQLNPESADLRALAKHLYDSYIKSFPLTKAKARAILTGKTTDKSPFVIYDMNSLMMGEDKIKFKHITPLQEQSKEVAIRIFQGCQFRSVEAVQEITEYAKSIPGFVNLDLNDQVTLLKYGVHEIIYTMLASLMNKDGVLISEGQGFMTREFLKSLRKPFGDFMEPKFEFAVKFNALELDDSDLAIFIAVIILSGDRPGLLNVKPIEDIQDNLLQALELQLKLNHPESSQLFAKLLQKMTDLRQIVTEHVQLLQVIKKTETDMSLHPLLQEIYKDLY
Put plainly: PPAR transfection (luciferase reporter) assay in COS cells, hPPARγ. The conditions noted are these: agonist activity, transiently transfected COS cells, 16 hours incubation; read-out: hPPAR; EC50 γ.

The next assay deals with T3, hPPARα (Homo sapiens, UniProt Q07869).
T3 construct: expressed in transfected cells; host or cells: COS cells (Cercopithecus aethiops kidney)
T3 sequence (Q07869 1-468): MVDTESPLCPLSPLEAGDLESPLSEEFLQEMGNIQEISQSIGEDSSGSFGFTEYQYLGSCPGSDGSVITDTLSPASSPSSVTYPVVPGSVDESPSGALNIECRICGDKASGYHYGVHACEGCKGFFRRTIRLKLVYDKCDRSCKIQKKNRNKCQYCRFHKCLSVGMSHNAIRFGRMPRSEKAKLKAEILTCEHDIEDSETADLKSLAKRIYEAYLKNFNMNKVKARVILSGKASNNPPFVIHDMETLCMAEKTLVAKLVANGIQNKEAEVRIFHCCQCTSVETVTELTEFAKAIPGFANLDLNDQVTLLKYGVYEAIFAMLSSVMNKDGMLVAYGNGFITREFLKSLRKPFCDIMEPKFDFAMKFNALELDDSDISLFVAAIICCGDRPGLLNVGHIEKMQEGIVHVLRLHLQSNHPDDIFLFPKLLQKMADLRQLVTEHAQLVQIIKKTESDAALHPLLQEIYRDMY
Put plainly: PPAR transfection (luciferase reporter) assay in COS cells, hPPARα. The conditions noted are these: agonist activity, transiently transfected COS cells, 16 hours incubation; read-out: hPPAR; EC50 α.

For `CCCCCCCCN(Cc1cccc(OC(C)(C)C(=O)O)c1)c1nc2ccccc2o1` [Example 6, 2-[3-[[N-(Benzoxazol-2-yl)-N-n-octyl]aminomethyl]phenoxy]-2-methylpropionic Acid], the EC50 is over 10 µM at hPPARδ, 0.2 µM at hPPARγ and 0.01 µM on hPPARα.

With `CN(C)c1ccc(CN(Cc2cccc(OC(C)(C)C(=O)O)c2)c2nc3ccccc3o2)cc1` [Example 41, 2-[3-[[N-(Benzoxazol-2-yl)-N-(4-dimethylaminobenzyl)]aminomethyl]phenoxy]-2-methylpropionic Acid], the results for the EC50 at hPPARδ, at hPPARγ and at hPPARα were 1.8 µM, 0.2 µM and 0.01 µM, respectively.

For the compound `CCCCCCCCN(Cc1cccc(OCC(=O)O)c1)c1nc2ccccc2o1` [Example 48, 3-[[N-(Benzoxazol-2-yl)-N-n-octyl]aminomethyl]phenoxyacetic Acid], the EC50 at hPPARδ came out at 4.5 µM; at hPPARγ it was 0.7 µM; on hPPARα, 0.01 µM.

As for `CC(C)(Oc1cccc(CN(Cc2ccc(Cl)cc2)c2nc3ccccc3o2)c1)C(=O)O` [compound 1], the EC50 was over 10 µM at hPPARδ, 0.2 µM at hPPARγ and 0.01 µM at hPPARα.

In the case of `CCCN(CCCc1ccc(OC(C)(C)C(=O)O)cc1)c1nc2ccccc2o1` [Example 132, 2-[4-[3-[N-(Benzoxazol-2-yl)-N-n-propyl]aminopropyl]phenoxy]-2-methylpropionic Acid], the EC50 on hPPARδ is over 10 µM; on hPPARγ, 2 µM; at hPPARα, 0.03 µM.

In the case of `CCCCCCCCN(CCCc1ccccc1OC(C)(C)C(=O)O)c1nc2ccccc2o1` [Example 155, 2-[2-[3-[N-(Benzoxazol-2-yl)-N-n-octyl]aminopropyl]phenoxy]-2-methylpropionic Acid], the EC50 at hPPARδ is 0.3 µM; on hPPARγ, 0.5 µM; at hPPARα it was 0.01 µM.

With `CC(C)(Oc1ccc(CN(Cc2cccc3ccccc23)c2nc3ccccc3o2)cc1)C(=O)O` [Example 12, 2-[4-[[N-(Benzoxazol-2-yl)-N-(naphth-1-ylmethyl)]aminomethyl]phenoxy]-2-methylpropionic Acid], the EC50 at hPPARδ was determined as 0.5 µM; on hPPARγ, 0.1 µM; on hPPARα, 0.003 µM.

Turning to `CCN(CCCc1ccc(OC(C)(C)C(=O)O)cc1)c1nc2ccccc2o1` [Example 114, 2-[4-[3-[N-(Benzoxazol-2-yl)-N-ethyl]aminopropyl]phenoxy]-2-methylpropionic Acid], the values for the EC50 on hPPARδ, on hPPARγ and at hPPARα were over 10 µM, 0.4 µM and 0.01 µM, respectively.

Take `CC(C)N(CCCc1ccc(OC(C)(C)C(=O)O)cc1)c1nc2ccccc2o1` [Example 133, 2-[4-[3-[N-(Benzoxazol-2-yl)-N-isopropyl]aminopropyl]phenoxy]-2-methylpropionic Acid]: the EC50 came out at 3 µM on hPPARδ, 0.3 µM at hPPARγ and 0.01 µM at hPPARα.

Consider `CC#CCN(CCCc1cccc(OC(C)(C)C(=O)O)c1)c1nc2ccccc2o1` [Example 121, 2-[3-[3-[N-(Benzoxazol-2-yl)-N-(2-butynyl)]aminopropyl]phenoxy]-2-methylpropionic Acid], for which the EC50 is over 10 µM on hPPARδ, 0.1 µM on hPPARγ and 0.004 µM at hPPARα.

As to `CCC(Oc1cccc(CN(CCCc2ccccc2)c2nc3ccccc3o2)c1)C(=O)O` (stereo not drawn) [Example 55, 2-[3-[[N-(Benzoxazol-2-yl)-N-(3-phenylpropyl)]aminomethyl]phenoxy]butyric Acid], the figures for the EC50 at hPPARδ, at hPPARγ and at hPPARα were 0.6 µM, 0.1 µM and 0.002 µM, respectively.

On to `CC(Oc1cccc(CN(CCCc2ccc(Cl)cc2)c2nc3ccccc3o2)c1)C(=O)O` (stereo not drawn) [Example 63, 2-[3-[[N-(Benzoxazol-2-yl)-N-(3-(4-chlorophenyl)propyl)]aminomethyl]phenoxy]propionic Acid], for which the figures for the EC50 on hPPARδ, on hPPARγ and on hPPARα were 0.9 µM, 0.1 µM and 0.002 µM, respectively.

Consider `CCC(Oc1cccc(CN(CCCc2ccc(Cl)cc2)c2nc3ccccc3o2)c1)C(=O)O` (stereo not drawn) [Example 56, 2-[3-[[N-(Benzoxazol-2-yl)-N-(3-(4-chlorophenyl)propyl)]aminomethyl]phenoxy]butyric Acid], for which the EC50 on hPPARδ is 1 µM; at hPPARγ, 0.1 µM; at hPPARα, 0.001 µM.

Consider `CCCCCCCN(Cc1cccc(OCC(=O)O)c1)c1nc2ccccc2o1` [Example 46, 3-[[N-(Benzoxazol-2-yl)-N-n-heptyl]aminomethyl]phenoxyacetic Acid], for which the EC50 at hPPARδ came to 1.1 µM; at hPPARγ, 0.4 µM; at hPPARα it was 0.01 µM.

Take `CCCCCCCCN(Cc1cccc(OC(CC)C(=O)O)c1)c1nc2ccccc2o1` (stereo not drawn) [Example 59, 2-[3-[[N-(Benzoxazol-2-yl)-N-n-octyl]aminomethyl]phenoxy]butyric Acid]: the EC50 was over 10 µM at hPPARδ, 0.1 µM on hPPARγ and 0.003 µM on hPPARα.

For `CC(Oc1cccc(CN(CCCc2ccccc2)c2nc3ccccc3o2)c1)C(=O)O` (stereo not drawn) [Example 70, 2-[3-[[N-(Benzoxazol-2-yl)-N-(3-phenylpropyl)]aminomethyl]phenoxy]propionic Acid], the EC50 on hPPARδ is over 10 µM; at hPPARγ, 0.4 µM; on hPPARα, 0.001 µM.

`CCCN(Cc1cccc(OC(C)C(=O)O)c1)c1nc2ccccc2o1` (stereo not drawn) [Example 74, 2-[3-[[N-(Benzoxazol-2-yl)-N-n-propyl]aminomethyl]phenoxy]propionic Acid]: the EC50 on hPPARδ is over 10 µM; on hPPARγ, over 10 µM; at hPPARα, 0.1 µM.

Turning to `CC(C)(Oc1cccc(CN(Cc2cccc3ccccc23)c2nc3ccccc3o2)c1)C(=O)O` [Example 135, 2-[3-[[N-(Benzoxazol-2-yl)-N-(naphth-1-ylmethyl)]aminomethyl]phenoxy]-2-methylpropionic Acid], the EC50 at hPPARδ is over 10 µM; on hPPARγ it was over 10 µM; at hPPARα, 0.01 µM.

Turning to `CCCCCCCCN(Cc1cccc(OC(C)C(=O)O)c1)c1nc2ccccc2o1` (stereo not drawn) [Example 69, 2-[3-[[N-(Benzoxazol-2-yl)-N-n-octyl]aminomethyl]phenoxy]propionic Acid], the values for the EC50 on hPPARδ, on hPPARγ and on hPPARα were over 10 µM, 0.2 µM and 0.0003 µM, respectively.

Take `CC(C)(Oc1ccc(CN(Cc2ccccc2[N+](=O)[O-])c2nc3ccccc3o2)cc1)C(=O)O` [Example 29, 2-[4-[[N-(Benzoxazol-2-yl)-N-(2-nitrobenzyl)]aminomethyl]phenoxy]-2-methylpropionic Acid]: the EC50 was over 10 µM at hPPARδ, over 10 µM on hPPARγ and 0.1 µM on hPPARα.

(Values after patent US6653334B1, “Benzoxazole compound and pharmaceutical composition containing the same” (Kowa Co., Ltd., priority 2002, dated 2003).)
